Assay results published in BindingDB's records for patent US20250368647 (Glaxosmithkline Intellectual Property Development, 2025).

Target: Sodium channel protein type 10 subunit alpha (Homo sapiens, UniProt Q9Y5Y9)
Experiment: Pharmacological Assay
Source text: Utilizing the voltage-clamp mode in the QPatch 48 HTX system a half inactivation state voltage protocol (V1/2) was used to determine pharmacological activity of compounds of the invention at Nav1.8 ion channels. A V1/2 protocol was utilized with the following voltage steps: a holding voltage of −100 mV was established followed by a 20 ms voltage step to 0 mV (P1), followed by an inactivating voltage step at −46 mV for 8 seconds, followed by a step to −100 mV for 20 ms, before a 20 ms step to 0 mV (P2), then returned to the holding voltage of −100 mV. This voltage protocol was repeated at a frequency of every 15 seconds, the current magnitude was quantified at the P2 step throughout the recording. Inhibition of the measured current amplitude with compounds of the invention was analyzed by fitting a 4-6 points dose-response curve allowing determination of the fifty percent inhibition concentration (IC50). P2 currents were normalized according to measurements made at baseline (Baseline, vehicle only), after compound (Input, at each test concentration), and after positive reference compound (FullResponse, to achieve complete block), fit to the following equation:n.ICPD=NormalizedCurrent=(Input-Baseline)(FullResponse-Baseline)[1570]To assess current run-down over the course of the experiment vehicle-only wells were utilized and the normalized current with vehicle-only (n.IVEH) was determined. To correct the compound response for run-down, the currents were corrected according to the following formula:n.IRD_Correct=(n.ICPD-n.IVEH)(1-n.IVEH)

Chain of Sodium channel protein type 10 subunit alpha (Q9Y5Y9 whole entry): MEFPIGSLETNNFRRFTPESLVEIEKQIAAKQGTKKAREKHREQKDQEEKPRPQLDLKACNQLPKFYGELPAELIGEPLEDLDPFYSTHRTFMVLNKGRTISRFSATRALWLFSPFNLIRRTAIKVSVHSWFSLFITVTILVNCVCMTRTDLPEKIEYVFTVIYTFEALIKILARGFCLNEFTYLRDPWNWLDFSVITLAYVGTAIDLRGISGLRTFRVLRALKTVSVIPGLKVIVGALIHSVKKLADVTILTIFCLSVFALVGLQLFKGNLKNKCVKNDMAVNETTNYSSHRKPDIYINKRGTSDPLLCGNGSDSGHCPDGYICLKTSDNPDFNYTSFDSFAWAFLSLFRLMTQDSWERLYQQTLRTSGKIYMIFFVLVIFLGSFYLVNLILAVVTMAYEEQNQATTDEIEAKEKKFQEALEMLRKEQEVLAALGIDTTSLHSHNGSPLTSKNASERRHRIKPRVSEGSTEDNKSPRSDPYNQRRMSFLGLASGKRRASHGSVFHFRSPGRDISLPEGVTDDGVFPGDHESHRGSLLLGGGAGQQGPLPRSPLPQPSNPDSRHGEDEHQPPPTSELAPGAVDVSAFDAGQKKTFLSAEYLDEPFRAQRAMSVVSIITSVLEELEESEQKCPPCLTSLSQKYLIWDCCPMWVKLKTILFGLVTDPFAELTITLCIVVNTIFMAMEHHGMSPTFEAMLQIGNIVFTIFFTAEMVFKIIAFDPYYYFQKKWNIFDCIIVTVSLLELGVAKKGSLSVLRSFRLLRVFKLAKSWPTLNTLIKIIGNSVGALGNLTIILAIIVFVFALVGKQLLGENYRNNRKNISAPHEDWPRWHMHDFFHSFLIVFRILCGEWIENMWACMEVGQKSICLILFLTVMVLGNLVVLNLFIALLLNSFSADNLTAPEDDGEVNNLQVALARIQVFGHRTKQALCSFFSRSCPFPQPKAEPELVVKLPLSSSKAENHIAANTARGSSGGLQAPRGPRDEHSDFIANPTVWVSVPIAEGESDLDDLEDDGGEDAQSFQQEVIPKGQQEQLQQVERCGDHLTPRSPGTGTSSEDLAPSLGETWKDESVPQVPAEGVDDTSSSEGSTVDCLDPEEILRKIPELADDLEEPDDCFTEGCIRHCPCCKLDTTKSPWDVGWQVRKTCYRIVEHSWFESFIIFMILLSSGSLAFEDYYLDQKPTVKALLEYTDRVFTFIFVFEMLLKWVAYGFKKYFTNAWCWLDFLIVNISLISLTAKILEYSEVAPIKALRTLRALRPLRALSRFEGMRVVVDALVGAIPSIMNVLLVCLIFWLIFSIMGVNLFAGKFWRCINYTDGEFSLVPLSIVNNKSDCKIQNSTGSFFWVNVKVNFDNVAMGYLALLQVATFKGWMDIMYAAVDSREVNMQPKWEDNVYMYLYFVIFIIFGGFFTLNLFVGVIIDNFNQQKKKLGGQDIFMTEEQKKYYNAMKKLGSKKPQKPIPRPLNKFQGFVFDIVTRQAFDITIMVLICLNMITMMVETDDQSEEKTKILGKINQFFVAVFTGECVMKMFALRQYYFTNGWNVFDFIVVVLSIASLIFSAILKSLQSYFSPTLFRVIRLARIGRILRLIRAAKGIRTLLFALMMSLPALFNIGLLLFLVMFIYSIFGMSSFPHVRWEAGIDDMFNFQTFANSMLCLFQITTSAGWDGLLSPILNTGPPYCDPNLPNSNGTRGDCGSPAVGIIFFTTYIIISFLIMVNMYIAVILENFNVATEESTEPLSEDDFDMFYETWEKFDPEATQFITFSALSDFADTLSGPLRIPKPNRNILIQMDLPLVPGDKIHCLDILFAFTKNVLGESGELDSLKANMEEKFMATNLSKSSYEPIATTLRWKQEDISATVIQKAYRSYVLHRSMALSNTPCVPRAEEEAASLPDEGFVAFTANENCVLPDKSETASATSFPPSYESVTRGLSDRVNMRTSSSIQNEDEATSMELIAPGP

| IC50 | SMILES |
| --- | --- |
| 200 nM | O=C1c2cc(C(F)(F)F)ccc2N2CN1c1ccc(=O)[nH]c1CCNCc1cc(F)c(F)cc12 [US20250368647, Example 47] |
| 1260 nM | O=C1c2cc(OCC(F)(F)F)ccc2N2CN1c1ccc(=O)[nH]c1CCNCc1cc(F)ccc12 [US20250368647, Example 56] |
| 316 nM | O=C1c2ccc(C(F)(F)F)cc2N2CN1c1ccc(=O)[nH]c1CCCCCOc1cc(F)ccc12 [US20250368647, Example 19] |

Second part, the compound before the results:

| SMILES | IC50 |
| --- | --- |
| CC1CCNc2[nH]c(=O)ccc2N2CN(c3cc(C(F)(F)F)c(F)cc3C2=O)c2ccc(F)c(F)c21 (stereo unspecified) [US20250368647, Example 131] | 15.8 nM |
| O=C1c2cc(F)c(C(F)(F)F)cc2N2CN1c1ccc(=O)[nH]c1CCNCc1c2ccc(OC(F)(F)F)c1F [US20250368647, Example 52] | 3.16 nM |
| O=C1c2cc(F)c(C(F)(F)F)cc2N2CN1c1ccc(=O)[nH]c1CCNCc1cc(OC(F)(F)F)ccc12 [US20250368647, Example 51] | 10 nM |
